Results published in patent US20260070945A1, “MACROCYCLIC IMMUNOMODULATORS” (Bristol-Myers Squibb Company, priority 2022, published 2026).
Where a SMILES comes first, the peptide text is derived from it. Bridges are numbered along the chain shown (N, C = ends). [ ]: non-standard residue; d: D form. The star is where a group is joined. ξ: configuration not given here. Phe(4-CONH2) = NC(=O)c1ccc(C[C@H](N)C(=O)O)cc1; Phe(4-COOH) = N[C@@H](Cc1ccc(C(=O)O)cc1)C(=O)O; Bip = N[C@@H](Cc1ccc(-c2ccccc2)cc1)C(=O)O; Phe(3-Me) = Cc1cccc(C[C@H](N)C(=O)O)c1; Val(3-OH) = CC(C)(O)[C@H](N)C(=O)O; 4Pal = N[C@@H](Cc1ccncc1)C(=O)O; Aad = N[C@@H](CCCC(=O)O)C(=O)O; Cha = N[C@@H](CC1CCCCC1)C(=O)O; Ile(3ξ) = CCC(C)[C@H](N)C(=O)O; Thr(3ξ) = CC(O)[C@H](N)C(=O)O; Carboxymethyl = O=C(O)C*; NMeA = CN[C@@H](C)C(=O)O; Aun = NCCCCCCCCCCC(=O)O; Dab = NCC[C@H](N)C(=O)O; AEEA = NCCOCCOCC(=O)O

The molecules below were run against T1, PD-1/PD-L1 interaction (PE-labeled human PD-L1-Ig binding to Jurkat cell line over-expressing human PD-1) (Homo sapiens, UniProt Q15116) (assay: Jurkat-PD-1 Cell Binding High-Content Screening Assay (CBA)). Settings: Jurkat-hPD-1 cells, PE-labeled PD-L1-Ig 20 nM final; read-out: Jurkat HPD1 PDL1 IC50.
T1 construct: expressed in transfected cells; host or cells: Jurkat
T1 sequence (Q15116 25-288): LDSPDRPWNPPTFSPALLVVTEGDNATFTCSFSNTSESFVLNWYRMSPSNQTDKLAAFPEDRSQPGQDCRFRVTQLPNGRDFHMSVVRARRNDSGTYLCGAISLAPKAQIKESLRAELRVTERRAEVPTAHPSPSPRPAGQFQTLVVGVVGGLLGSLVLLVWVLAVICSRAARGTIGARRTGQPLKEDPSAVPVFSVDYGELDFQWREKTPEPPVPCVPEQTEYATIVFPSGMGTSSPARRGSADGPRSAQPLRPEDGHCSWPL
Outline: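 Jurkat-hPD-1 cells (8×10^3/well) in DMEM with 10% fetal calf serum were preincubated with compound for 2 h at 37 °C. PE-labeled PD-L1-Ig was then added at 20 nM final for 1 h. Cells were fixed in paraformaldehyde with Hoechst 33342, washed and imaged by high-content imaging.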

| Compound | IC50 |
| --- | --- |
| Cc1cccc(C[C@@H]2NC(=O)[C@H](CC(=O)O)NC(=O)[C@H](Cc3ccc(OCC(=O)O)cc3)NC(=O)[C@H](C(C)O)NC(=O)CSC[C@@H](C(=O)N[C@@H](CCN)C(=O)NCCOCCOCC(=O)NCCCCCCCCCCC(=O)O)NC(=O)[C@H](CCC(=O)O)NC(=O)[C@H](C(C)(C)O)NC(=O)[C@H](CC3CCCCC3)NC(=O)[C@H](CCN)NC(=O)[C@@H](CC(C)C)NC(=O)[C@H](C)N(C)C(=O)[C@H](Cc3ccc(OCC(=O)O)cc3)NC(=O)[C@H](Cc3ccc(-c4ccccc4)cc3)NC(=O)[C@H](Cc3ccc(C(=O)O)cc3)NC2=O)c1 (stereo partly drawn) [Example 2473] ({CH2CO}-[Thr(3ξ)]Y(Carboxymethyl)D[Phe(3-Me)][Phe(4-COOH)][Bip]Y(Carboxymethyl)[NMeA][dL][Dab][Cha][Val(3-OH)]EC[Dab][AEEA][Aun]-OH; thioether N-14) | 0.0321 µM |
| Cc1cccc(C[C@@H]2NC(=O)[C@H](CC(=O)O)NC(=O)[C@H](Cc3ccc(OCC(=O)O)cc3)NC(=O)[C@H](C(C)O)NC(=O)CSC[C@@H](C(=O)N[C@@H](CCN)C(=O)NCCOCCOCC(=O)NCCCCCCCCCCC(=O)O)NC(=O)[C@H](CC(N)=O)NC(=O)[C@H](C(C)(C)O)NC(=O)[C@H](CC3CCCCC3)NC(=O)[C@H](CCN)NC(=O)[C@@H](CC(C)C)NC(=O)[C@H](C)N(C)C(=O)[C@H](Cc3ccc(OCC(=O)O)cc3)NC(=O)[C@H](Cc3ccc(-c4ccccc4)cc3)NC(=O)[C@H](Cc3ccc(C(=O)O)cc3)NC2=O)c1 (stereo partly drawn) [Example 2474] ({CH2CO}-[Thr(3ξ)]Y(Carboxymethyl)D[Phe(3-Me)][Phe(4-COOH)][Bip]Y(Carboxymethyl)[NMeA][dL][Dab][Cha][Val(3-OH)]NC[Dab][AEEA][Aun]-OH; thioether N-14) | 0.0249 µM |
| Cc1cccc(C[C@@H]2NC(=O)[C@H](CC(=O)O)NC(=O)[C@H](Cc3ccc(OCC(=O)O)cc3)NC(=O)[C@H](C(C)O)NC(=O)CSC[C@@H](C(=O)N[C@@H](CCN)C(=O)NCCOCCOCC(=O)NCCCCCCCCCCC(=O)O)NC(=O)[C@H](CCC(N)=O)NC(=O)[C@H](C(C)C)NC(=O)[C@H](CC3CCCCC3)NC(=O)[C@H](CCN)NC(=O)[C@@H](CC(C)C)NC(=O)[C@H](C)N(C)C(=O)[C@H](Cc3ccc(OCC(=O)O)cc3)NC(=O)[C@H](Cc3ccc(-c4ccccc4)cc3)NC(=O)[C@H](Cc3ccc(C(=O)O)cc3)NC2=O)c1 (stereo partly drawn) [Example 2475] ({CH2CO}-[Thr(3ξ)]Y(Carboxymethyl)D[Phe(3-Me)][Phe(4-COOH)][Bip]Y(Carboxymethyl)[NMeA][dL][Dab][Cha]VQC[Dab][AEEA][Aun]-OH; thioether N-14) | 0.0189 µM |
| Cc1cccc(C[C@@H]2NC(=O)[C@H](CC(=O)O)NC(=O)[C@H](Cc3ccc(OCC(=O)O)cc3)NC(=O)[C@H](C(C)O)NC(=O)CSC[C@@H](C(=O)N[C@@H](CCN)C(=O)NCCOCCOCC(=O)NCCCCCCCCCCC(=O)O)NC(=O)[C@H](CCCC(=O)O)NC(=O)[C@H](C(C)C)NC(=O)[C@H](CC3CCCCC3)NC(=O)[C@H](CCN)NC(=O)[C@@H](CC(C)C)NC(=O)[C@H](C)N(C)C(=O)[C@H](Cc3ccc(OCC(=O)O)cc3)NC(=O)[C@H](Cc3ccc(-c4ccccc4)cc3)NC(=O)[C@H](Cc3ccc(C(=O)O)cc3)NC2=O)c1 (stereo partly drawn) [Example 2476] ({CH2CO}-[Thr(3ξ)]Y(Carboxymethyl)D[Phe(3-Me)][Phe(4-COOH)][Bip]Y(Carboxymethyl)[NMeA][dL][Dab][Cha]V[Aad]C[Dab][AEEA][Aun]-OH; thioether N-14) | 0.0144 µM |

Same assay, conditions: PE-labeled PD-L1-Ig 20 nM final, Jurkat-hPD-1 cells; read-out: Jurkat HPD1 PDL1 IC50

| Compound | IC50 |
| --- | --- |
| Cc1cccc(C[C@@H]2NC(=O)[C@H](CC(=O)O)NC(=O)[C@H](Cc3ccc(OCC(=O)O)cc3)NC(=O)[C@H](CCN)NC(=O)CSC[C@@H](C(=O)N[C@@H](CCN)C(=O)NCCCCCCCCCCC(=O)O)NC(=O)[C@H](CO)NC(=O)[C@H](C(C)(C)O)NC(=O)[C@H](CC3CCCCC3)NC(=O)[C@H](Cc3c[nH]cn3)NC(=O)[C@@H](CC(C)C)NC(=O)[C@H](C)N(C)C(=O)[C@H](Cc3ccc(OCC(=O)O)cc3)NC(=O)[C@H](Cc3ccc(-c4ccccc4)cc3)NC(=O)[C@H](Cc3ccc(OCC(=O)O)cc3)NC2=O)c1 [Example 2465] ({CH2CO}-[Dab]Y(Carboxymethyl)D[Phe(3-Me)]Y(Carboxymethyl)[Bip]Y(Carboxymethyl)[NMeA][dL]H[Cha][Val(3-OH)]SC[Dab][Aun]-OH; thioether N-14) | 0.0702 µM |
| Cc1cccc(C[C@@H]2NC(=O)[C@H](CC(=O)O)NC(=O)[C@H](Cc3ccc(OCC(=O)O)cc3)NC(=O)[C@H](Cc3ccncc3)NC(=O)CSC[C@@H](C(=O)N[C@@H](CCN)C(=O)NCCCCCCCCCCC(=O)O)NC(=O)[C@H](CO)NC(=O)[C@H](C(C)(C)O)NC(=O)[C@H](CC3CCCCC3)NC(=O)[C@H](Cc3c[nH]cn3)NC(=O)[C@@H](CC(C)C)NC(=O)[C@H](C)N(C)C(=O)[C@H](Cc3ccc(OCC(=O)O)cc3)NC(=O)[C@H](Cc3ccc(-c4ccccc4)cc3)NC(=O)[C@H](Cc3ccc(OCC(=O)O)cc3)NC2=O)c1 [Example 2466] ({CH2CO}-[4Pal]Y(Carboxymethyl)D[Phe(3-Me)]Y(Carboxymethyl)[Bip]Y(Carboxymethyl)[NMeA][dL]H[Cha][Val(3-OH)]SC[Dab][Aun]-OH; thioether N-14) | 0.0548 µM |
| Cc1cccc(C[C@@H]2NC(=O)[C@H](CC(=O)O)NC(=O)[C@H](Cc3ccc(OCC(=O)O)cc3)NC(=O)[C@H](Cc3ccncc3)NC(=O)CSC[C@@H](C(=O)N[C@@H](CCN)C(=O)NCCCCCCCCCCC(=O)O)NC(=O)[C@H](Cc3cnc[nH]3)NC(=O)[C@H](C(C)(C)O)NC(=O)[C@H](CC3CCCCC3)NC(=O)[C@H](CCN)NC(=O)[C@@H](CC(C)C)NC(=O)[C@H](C)N(C)C(=O)[C@H](Cc3ccc(OCC(=O)O)cc3)NC(=O)[C@H](Cc3ccc(-c4ccccc4)cc3)NC(=O)[C@H](Cc3ccc(OCC(=O)O)cc3)NC2=O)c1 [Example 2467] ({CH2CO}-[4Pal]Y(Carboxymethyl)D[Phe(3-Me)]Y(Carboxymethyl)[Bip]Y(Carboxymethyl)[NMeA][dL][Dab][Cha][Val(3-OH)]HC[Dab][Aun]-OH; thioether N-14) | 0.161 µM |
| Cc1cccc(C[C@@H]2NC(=O)[C@H](CC(=O)O)NC(=O)[C@H](Cc3ccc(OCC(=O)O)cc3)NC(=O)[C@H](C(C)O)NC(=O)CSC[C@@H](C(=O)N[C@@H](CCN)C(=O)NCCOCCOCC(=O)NCCCCCCCCCCC(=O)O)NC(=O)[C@H](C(C)O)NC(=O)[C@H](C(C)(C)O)NC(=O)[C@H](CC3CCCCC3)NC(=O)[C@H](CCN)NC(=O)[C@@H](CC(C)C)NC(=O)[C@H](C)N(C)C(=O)[C@H](Cc3ccc(OCC(=O)O)cc3)NC(=O)[C@H](Cc3ccc(-c4ccccc4)cc3)NC(=O)[C@H](Cc3ccc(OCC(=O)O)cc3)NC2=O)c1 (stereo partly drawn) [Example 2468] ({CH2CO}-[Thr(3ξ)]Y(Carboxymethyl)D[Phe(3-Me)]Y(Carboxymethyl)[Bip]Y(Carboxymethyl)[NMeA][dL][Dab][Cha][Val(3-OH)][Thr(3ξ)]C[Dab][AEEA][Aun]-OH; thioether N-14) | 0.0223 µM |
| Cc1cccc(C[C@@H]2NC(=O)[C@H](CC(=O)O)NC(=O)[C@H](Cc3ccc(OCC(=O)O)cc3)NC(=O)[C@H](C(C)O)NC(=O)CSC[C@@H](C(=O)N[C@@H](CCN)C(=O)NCCOCCOCC(=O)NCCCCCCCCCCC(=O)O)NC(=O)[C@H](CO)NC(=O)[C@H](C(C)(C)O)NC(=O)[C@H](CC3CCCCC3)NC(=O)[C@H](CCN)NC(=O)[C@@H](CC(C)C)NC(=O)[C@H](C)N(C)C(=O)[C@H](Cc3ccc(OCC(=O)O)cc3)NC(=O)[C@H](Cc3ccc(-c4ccccc4)cc3)NC(=O)[C@H](Cc3ccc(OCC(=O)O)cc3)NC2=O)c1 (stereo partly drawn) [Example 2469] ({CH2CO}-[Thr(3ξ)]Y(Carboxymethyl)D[Phe(3-Me)]Y(Carboxymethyl)[Bip]Y(Carboxymethyl)[NMeA][dL][Dab][Cha][Val(3-OH)]SC[Dab][AEEA][Aun]-OH; thioether N-14) | 0.0253 µM |
| Cc1cccc(C[C@@H]2NC(=O)[C@H](CC(=O)O)NC(=O)[C@H](Cc3ccc(OCC(=O)O)cc3)NC(=O)[C@H](C(C)O)NC(=O)CSC[C@@H](C(=O)N[C@@H](CCN)C(=O)NCCOCCOCC(=O)NCCCCCCCCCCC(=O)O)NC(=O)[C@H](Cc3cnc[nH]3)NC(=O)[C@H](C(C)(C)O)NC(=O)[C@H](CC3CCCCC3)NC(=O)[C@H](CCN)NC(=O)[C@@H](CC(C)C)NC(=O)[C@H](C)N(C)C(=O)[C@H](Cc3ccc(OCC(=O)O)cc3)NC(=O)[C@H](Cc3ccc(-c4ccccc4)cc3)NC(=O)[C@H](Cc3ccc(OCC(=O)O)cc3)NC2=O)c1 (stereo partly drawn) [Example 2470] ({CH2CO}-[Thr(3ξ)]Y(Carboxymethyl)D[Phe(3-Me)]Y(Carboxymethyl)[Bip]Y(Carboxymethyl)[NMeA][dL][Dab][Cha][Val(3-OH)]HC[Dab][AEEA][Aun]-OH; thioether N-14) | 0.0087 µM |
| CCC(C)[C@@H]1NC(=O)[C@H](Cc2ccc(-c3ccccc3)cc2)NC(=O)[C@H](Cc2ccc(C(N)=O)cc2)NC(=O)[C@H](Cc2cccc(C)c2)NC(=O)[C@H](CC(=O)O)NC(=O)[C@H](Cc2ccc(OCC(=O)O)cc2)NC(=O)[C@H](C(C)O)NC(=O)CSC[C@@H](C(=O)N[C@@H](CCN)C(=O)NCCOCCOCC(=O)NCCCCCCCCCCC(=O)O)NC(=O)[C@H](C(C)O)NC(=O)[C@H](C(C)(C)O)NC(=O)[C@H](CC2CCCCC2)NC(=O)[C@H](CCN)NC(=O)[C@@H](CC(C)C)NC(=O)[C@H](C)N(C)C1=O (stereo partly drawn) [Example 2471] ({CH2CO}-[Thr(3ξ)]Y(Carboxymethyl)D[Phe(3-Me)][Phe(4-CONH2)][Bip][Ile(3ξ)][NMeA][dL][Dab][Cha][Val(3-OH)][Thr(3ξ)]C[Dab][AEEA][Aun]-OH; thioether N-14) | 0.0093 µM |
